One experiment concerns MCF7 cells. The experiment is described as follows: Cell proliferation assay (BrDU incorporation), MCF7. It is filed as cell-based, human. The settings on record: MCF7 cells treated 24 h, concentration-dependent, level reached. The procedure:
FIG. 2. OCDO is a tumor promoter in vitro and in vivo and its inhibition contributes to the anti-tumor effects of Tam and DDA. (A, B) Histograms representing the effect of OCDO or 17β-estrogen (E2) on MCF7 (A) and TS/A (B) cell proliferation after 24 h treatment using a colorimetric immunoassay measuring BrDU incorporation in DNA (C, D) Histogram representing the effect of OCDO on MCF7 (C) and TS/A (D) cell invasion. Data are the mean of three separate experiments (±[…]) Mice were implanted s.c. with MCF7 (E) or TS/A (F) cells and animals (8 per group) were treated s.c. every day starting on the day of implantation with either the solvent vehicle or OCDO (16 μg/kg for MCF7 or 50 μg/kg for TS/A). Animals were monitored for tumour growth twice a week. The data are representative of three independent experiments. The mean tumor volume±s.e.m is shown, *P<0.05, **P<0.01, ***P<0.001 (analysis of variance (ANOVA), Dunnett's post test). […] (I, J, K). Murine […], or human MDA-MB231 (J) or MDA-MB468 (K) cells implanted s.c. into mice (8 per group) and animals were treated s.c. with either the solvent vehicle or OCDO (16 μg/kg for MDA-MB-231 and MDA-MB-468 or 50 μg/kg for E0771). […] At the end of this time, cells were incubated with BrDU for an additional 8 h and then evaluated for proliferation using the ELISA kit, Roche Diagnostic, as indicated by the manufacturer.

In another experiment the test system is MDA-MB468 cells. The experiment is described as follows: Growth of MDA-MB468 tumors implanted s.c. into mice. The experiment is classed as in vivo. As to conditions: human MDA-MB468 tumors, OCDO 16 μg/kg s.c. The procedure:
FIG. 2. OCDO is a tumor promoter in vitro and in vivo and its inhibition contributes to the anti-tumor effects of Tam and DDA. (A, B) Histograms representing the effect of OCDO or 17β-estrogen (E2) on MCF7 (A) and TS/A (B) cell proliferation after 24 h treatment using a colorimetric immunoassay measuring BrDU incorporation in DNA (C, D) Histogram representing the effect of OCDO on MCF7 (C) and TS/A (D) cell invasion. Data are the mean of three separate experiments (±s.e.m), *P<0.05, **P<0.01, ***P<0.001 (Student's t-test). (E, F) Mice were implanted s.c. with MCF7 (E) or TS/A (F) cells and animals (8 per group) were treated s.c. every day starting on the day of implantation with either the solvent vehicle or OCDO (16 μg/kg for MCF7 or 50 μg/kg for TS/A). Animals were monitored for tumour growth twice a week. […] (G) Mean (±s.e.m) of Ki67 positive cell number determined from IHC staining of MCF7 tumor sections from (E), n=8, *P<0.05 (Student's t-test) using HistoQuant, Pannoramic Viewer (3DHistech). […]
Exponentially growing MCF7, ShMCF7, E0771, MDA-MB231, MDA-MB468 and TS/A cells were collected, washed twice in PBS and resuspended in PBS. […] Animals were examined daily, and body weights were measured twice per week. In all the experiments, the tumor volume was determined by direct measurement with a caliper and was calculated using the formula (width^2×length)/2. […]

The results in this text go back to patent US20170234881A1, “METHODS OF DIAGNOSING AND TREATING CANCER” (INSERM ( INSTITUT NATIONAL DE LA SANTÉ ET DE LA RECHERCHE …, priority 2014, published 2017).

The structures appear in SMILES notation.

For `CC(C)CCC[C@@H](C)[C@H]1CC[C@H]2[C@@H]3CC(=O)[C@@]4(O)C[C@@H](O)CC[C@]4(C)[C@H]3CC[C@]12C` [OCDO, 6-oxo-cholestan-3β,5α-diol], the “growth rate (cell proliferation) relative to the control” value with MCF7 cells is listed as 1.3 fold. Further, in the experiment with MDA-MB468 cells, the tumor growth result was “stimulates the growth”.
